This passage reports inhibition results from PMC5328913 (Redox Biology, 2017).

In the assay the target is T1, L-galactono-1,4-lactone dehydrogenase (GalLDH) from pepper fruits (Capsicum annuum, UniProt Q6QD76).
T1 sequence (Q6QD76 38-586): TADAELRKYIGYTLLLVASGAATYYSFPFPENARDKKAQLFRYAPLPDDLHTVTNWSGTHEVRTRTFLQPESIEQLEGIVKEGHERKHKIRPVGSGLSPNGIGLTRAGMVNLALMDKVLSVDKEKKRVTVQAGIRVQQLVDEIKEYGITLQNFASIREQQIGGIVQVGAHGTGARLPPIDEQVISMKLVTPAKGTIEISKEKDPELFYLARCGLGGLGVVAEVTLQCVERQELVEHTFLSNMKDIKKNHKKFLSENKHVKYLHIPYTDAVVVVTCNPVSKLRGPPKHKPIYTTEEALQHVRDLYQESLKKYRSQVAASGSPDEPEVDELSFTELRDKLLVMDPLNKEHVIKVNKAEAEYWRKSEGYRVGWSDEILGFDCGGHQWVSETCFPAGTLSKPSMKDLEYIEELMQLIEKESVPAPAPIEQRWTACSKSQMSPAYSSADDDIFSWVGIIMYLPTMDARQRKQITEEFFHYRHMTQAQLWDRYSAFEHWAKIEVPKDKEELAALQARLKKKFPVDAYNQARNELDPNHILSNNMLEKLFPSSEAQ
The experiment in a line: spectrophotometric cytochrome c reduction at […] nm. The following applies: read-out: % inhibition at 0.5 mM and 2 mM. Type of assay: biochemical.

As to `N[C@@H](CCC(=O)N[C@@H](CS)C(=O)NCC(=O)O)C(=O)O` [GSH, reduced glutathione], the inhibition at 500 µM amounted to 60%.
